Measurements as given in ChEMBL document CHEMBL5042556, “Lead Optimization to Advance Protease-Activated Receptor-1 Antagonists in Early Discovery” (J Med Chem, 2022).

Columns and labels:
[1] = Ex vivo inhibition of PAR-1 in cynomolgus monkey whole blood assessed as inhibition of TRAP-induced platelet aggregation at 0.3 mg/kg, po measured after 24 hrs; type: functional; details: Macaca fascicularis
[2] = Oral bioavailability in dog; type: ADME, organism-based, Canis lupus familiaris; details: in vivo
[3] = Unbound volume of distribution in intravenously dosed cynomolgus monkey; type: ADME, organism-based, Macaca fascicularis; details: in vivo, iv
[4] = Plasma protein binding in rat assessed as unbound fraction; type: ADME, cell-free
[5] = Clearance in human hepatocyte measured per 10^6 cells; type: ADME, cell-based; details: hepatocytes
[6] = Plasma protein binding in cynomolgus monkey assessed as unbound fraction; type: ADME, cell-free, Macaca fascicularis
[7] = Apparent permeability in MDCKII-LE cells; type: ADME, cell-based, Canis lupus familiaris; details: dog, MDCK
[8] = Clearance in intravenously dosed dog; type: ADME, organism-based, Canis lupus familiaris; details: in vivo, iv
[9] = Clearance in dog hepatocyte measured per 10^6 cells; type: ADME, cell-based, Canis lupus familiaris; details: hepatocytes
[10] = Oral bioavailability in rat; type: ADME, organism-based; details: in vivo
[11] = Volume of distribution in intravenously dosed cynomolgus monkey; type: ADME, organism-based, Macaca fascicularis; details: in vivo, iv
[12] = Clearance in mouse hepatocyte measured per 10^6 cells; type: ADME, cell-based; details: hepatocytes
[13] = Ex vivo inhibition of PAR-1 in cynomolgus monkey whole blood assessed as inhibition of TRAP-induced platelet aggregation at 1 mg/kg, po measured after 24 hrs; type: functional; details: Macaca fascicularis
[14] = Volume of distribution in rat at 0.3 mg/kg, iv; type: ADME, organism-based; details: in vivo
[15] = MRT in rat at 3 mg/kg, iv; type: ADME, organism-based; details: in vivo
[16] = Unbound volume of distribution in rat at 3 mg/kg, iv; type: ADME, organism-based; details: in vivo
[17] = Clearance in intravenously dosed cynomolgus monkey; type: ADME, organism-based, Macaca fascicularis; details: in vivo, iv
P-glycoprotein = assay: Effect on rat P-glycoprotein expressed in MDCK cells assessed as efflux ratio of apparent permeability across basolateral to apical side over apical to basolateral side (reference value: 0.6 to 0.8); type: ADME, cell-based, MDCKII-LE; details: MDCK-MDR1
[18] = Unbound clearance in intravenously dosed cynomolgus monkey; type: ADME, organism-based, Macaca fascicularis; details: in vivo, iv
[19] = Unbound volume of distribution in intravenously dosed dog; type: ADME, organism-based, Canis lupus familiaris; details: in vivo, iv
[20] = MRT in cynomolgus monkey at 0.3 mg/kg, iv; type: ADME, organism-based, Macaca fascicularis; details: in vivo
[21] = MRT in intravenously dosed cynomolgus monkey; type: ADME, organism-based, Macaca fascicularis; details: in vivo, iv
P-glycoprotein (ABCB1) = P-glycoprotein (ABCB1) (Homo sapiens, UniProt P08183); assay: Effect on human P-glycoprotein expressed in MDCK cells assessed as efflux ratio of apparent permeability across basolateral to apical side over apical to basolateral side (reference value: 0.6 to 0.8); type: ADME, cell-based, MDCKII-LE; details: MDCK-MDR1
[22] = Plasma protein binding in dog assessed as unbound fraction; type: ADME, cell-free, Canis lupus familiaris
[23] = Clearance in rat hepatocyte measured per 10^6 cells; type: ADME, cell-based; details: hepatocytes
[24] = biological target: T1, Voltage-gated inwardly rectifying potassium channel KCNH2 (Homo sapiens, UniProt Q12809); assay: Inhibition of [35S]MK-499 binding to hERG expressed in HEK293 cells; type: toxicity, cell-based
[25] = Unbound clearance in intravenously dosed dog; type: ADME, organism-based, Canis lupus familiaris; details: in vivo, iv
[26] = MRT in intravenously dosed dog; type: ADME, organism-based, Canis lupus familiaris; details: in vivo, iv
[27] = Oral bioavailability in cynomolgus monkey; type: ADME, organism-based, Macaca fascicularis; details: in vivo
[28] = MRT in rat at 1 mg/kg, iv; type: ADME, organism-based; details: in vivo
[29] = biological target: T2, Proteinase-activated receptor 1 (Homo sapiens, UniProt P25116); assay: Antagonist activity at human PAR-1 expressed in HEK293 cells assessed as reduction in TRAP induced calcium signal at 3 uM by FLIPR analysis; type: functional, cell-based
T2 sequence (P25116 whole entry): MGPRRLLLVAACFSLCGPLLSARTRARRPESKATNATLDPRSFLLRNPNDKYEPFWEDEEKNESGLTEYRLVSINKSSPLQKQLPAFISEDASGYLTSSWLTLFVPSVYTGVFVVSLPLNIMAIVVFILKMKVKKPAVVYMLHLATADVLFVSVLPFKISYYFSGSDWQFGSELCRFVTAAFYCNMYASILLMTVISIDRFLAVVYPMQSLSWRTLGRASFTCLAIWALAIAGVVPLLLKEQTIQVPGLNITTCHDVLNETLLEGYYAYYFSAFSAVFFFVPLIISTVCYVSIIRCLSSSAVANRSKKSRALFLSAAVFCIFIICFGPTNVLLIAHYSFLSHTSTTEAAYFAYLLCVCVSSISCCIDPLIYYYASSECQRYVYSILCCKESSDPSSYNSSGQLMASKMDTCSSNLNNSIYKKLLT

[30] = Clearance in rat at 3 mg/kg, iv; type: ADME, organism-based; details: in vivo
[31] = Unbound clearance in rat at 3 mg/kg, iv; type: ADME, organism-based; details: in vivo
[32] = biological target: T1, Voltage-gated inwardly rectifying potassium channel KCNH2; assay: Inhibition of [35S]MK-499 binding to hERG expressed in HEK293 cells at 60 uM; type: toxicity, cell-based
[33] = AUC in Sprague-Dawley rat at 3 mg/kg, po; type: ADME, organism-based; set-up: dose 3 mg/kg; details: in vivo
[34] = Dose normalized AUC in Sprague-Dawley rat at 10 mg/kg, po; type: ADME, organism-based; details: in vivo
[35] = Unbound clearance in cynomolgus monkey at 0.3 mg/kg, iv; type: ADME, organism-based, Macaca fascicularis; details: in vivo
[36] = AUC in Sprague-Dawley rat at 30 mg/kg, po; type: ADME, organism-based; set-up: dose 30 mg/kg; details: in vivo
[37] = Oral bioavailability in rat at 10 mg/kg; type: ADME, organism-based; details: in vivo
[38] = Clearance in cynomolgus monkey at 0.3 mg/kg, iv; type: ADME, organism-based, Macaca fascicularis; details: in vivo
[39] = Cmax in Sprague-Dawley rat at 10 mg/kg, po; type: ADME, organism-based; set-up: route oral, dose 10 mg/kg; details: in vivo
[40] = Dose normalized Cmax in Sprague-Dawley rat at 50 mg/kg, po; type: ADME, organism-based; details: in vivo
[41] = Dose normalized Cmax in Sprague-Dawley rat at 30 mg/kg, po; type: ADME, organism-based; details: in vivo
[42] = Volume of distribution in cynomolgus monkey at 0.3 mg/kg, iv; type: ADME, organism-based, Macaca fascicularis; details: in vivo
[43] = Dose normalized AUC in Sprague-Dawley rat at 50 mg/kg, po; type: ADME, organism-based; details: in vivo
[44] = Oral bioavailability in cynomolgus monkey at 1 mg/kg,; type: ADME, organism-based, Macaca fascicularis; details: in vivo
[45] = AUC in Sprague-Dawley rat at 50 mg/kg, po; type: ADME, organism-based; set-up: dose 50 mg/kg; details: in vivo
[46] = MRT in cynomolgus monkey at 1 mg/kg, iv; type: ADME, organism-based, Macaca fascicularis; details: in vivo
[47] = Dose normalized Cmax in Sprague-Dawley rat at 10 mg/kg, po; type: ADME, organism-based; details: in vivo
[48] = Toxicity in rat assessed as non-toxic AUC for tissue toxicity at 30 mg/kg; type: organism-based; details: in vivo
[49] = MRT in dog at 0.3 mg/kg, iv; type: ADME, organism-based, Canis lupus familiaris; details: in vivo
[50] = Unbound volume of distribution in cynomolgus monkey at 0.3 mg/kg, iv; type: ADME, organism-based, Macaca fascicularis; details: in vivo
[51] = AUC in Sprague-Dawley rat at 10 mg/kg, po; type: ADME, organism-based; set-up: dose 10 mg/kg; details: in vivo
[52] = Volume of distribution in dog at 0.3 mg/kg, iv; type: ADME, organism-based, Canis lupus familiaris; details: in vivo
[53] = Dose normalized Cmax in Sprague-Dawley rat at 3 mg/kg, po; type: ADME, organism-based; details: in vivo
[54] = Cmax in Sprague-Dawley rat at 30 mg/kg, po; type: ADME, organism-based; set-up: route oral, dose 30 mg/kg; details: in vivo
[55] = Dose normalized AUC in Sprague-Dawley rat at 3 mg/kg, po; type: ADME, organism-based; details: in vivo
[56] = Cmax in Sprague-Dawley rat at 50 mg/kg, po; type: ADME, organism-based; set-up: route oral, dose 50 mg/kg; details: in vivo
[57] = Unbound volume of distribution in dog at 0.3 mg/kg, iv; type: ADME, organism-based, Canis lupus familiaris; details: in vivo
[58] = Oral bioavailability in dog at 1 mg/kg; type: ADME, organism-based, Canis lupus familiaris; details: in vivo
[59] = Toxicity in rat assessed as non-toxic AUC for liver bioactivation at 30 mg/kg; type: organism-based; details: in vivo
[60] = Clearance in dog at 0.3 mg/kg, iv; type: ADME, organism-based, Canis lupus familiaris; details: in vivo
[61] = Cmax in Sprague-Dawley rat at 3 mg/kg, po; type: ADME, organism-based; set-up: route oral, dose 3 mg/kg; details: in vivo
[62] = Dose normalized AUC in Sprague-Dawley rat at 30 mg/kg, po; type: ADME, organism-based; details: in vivo

T1 sequence (Q12809 whole entry): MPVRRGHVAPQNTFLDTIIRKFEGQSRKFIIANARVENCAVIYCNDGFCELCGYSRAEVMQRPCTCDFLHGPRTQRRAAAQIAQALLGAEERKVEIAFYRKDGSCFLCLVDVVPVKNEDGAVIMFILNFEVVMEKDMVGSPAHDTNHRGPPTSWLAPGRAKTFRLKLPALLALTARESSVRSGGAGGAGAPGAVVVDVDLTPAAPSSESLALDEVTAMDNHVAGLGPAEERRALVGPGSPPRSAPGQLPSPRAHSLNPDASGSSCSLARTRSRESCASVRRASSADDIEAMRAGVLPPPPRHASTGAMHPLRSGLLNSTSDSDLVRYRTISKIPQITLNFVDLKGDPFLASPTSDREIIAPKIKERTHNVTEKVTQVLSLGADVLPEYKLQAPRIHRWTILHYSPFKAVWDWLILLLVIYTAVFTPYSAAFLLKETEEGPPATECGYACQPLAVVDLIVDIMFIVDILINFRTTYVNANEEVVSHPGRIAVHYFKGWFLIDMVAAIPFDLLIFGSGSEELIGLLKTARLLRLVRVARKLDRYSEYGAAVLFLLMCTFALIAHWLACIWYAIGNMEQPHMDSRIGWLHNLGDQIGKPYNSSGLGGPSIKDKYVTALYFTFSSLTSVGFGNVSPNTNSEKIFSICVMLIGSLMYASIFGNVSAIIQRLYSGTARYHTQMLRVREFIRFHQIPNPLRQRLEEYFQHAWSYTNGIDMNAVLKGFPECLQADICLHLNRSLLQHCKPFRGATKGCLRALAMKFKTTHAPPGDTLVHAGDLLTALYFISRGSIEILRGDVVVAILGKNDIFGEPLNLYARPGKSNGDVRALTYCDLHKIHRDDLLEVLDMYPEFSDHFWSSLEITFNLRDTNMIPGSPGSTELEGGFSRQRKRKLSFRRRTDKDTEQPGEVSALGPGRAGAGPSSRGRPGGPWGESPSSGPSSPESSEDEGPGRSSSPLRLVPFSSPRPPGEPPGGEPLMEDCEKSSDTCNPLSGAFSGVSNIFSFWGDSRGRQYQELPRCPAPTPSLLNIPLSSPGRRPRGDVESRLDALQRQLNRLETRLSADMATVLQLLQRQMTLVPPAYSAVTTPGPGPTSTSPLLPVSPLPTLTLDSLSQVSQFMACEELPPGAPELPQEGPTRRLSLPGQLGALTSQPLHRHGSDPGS
Sequence of P-glycoprotein (ABCB1) (P08183 whole entry): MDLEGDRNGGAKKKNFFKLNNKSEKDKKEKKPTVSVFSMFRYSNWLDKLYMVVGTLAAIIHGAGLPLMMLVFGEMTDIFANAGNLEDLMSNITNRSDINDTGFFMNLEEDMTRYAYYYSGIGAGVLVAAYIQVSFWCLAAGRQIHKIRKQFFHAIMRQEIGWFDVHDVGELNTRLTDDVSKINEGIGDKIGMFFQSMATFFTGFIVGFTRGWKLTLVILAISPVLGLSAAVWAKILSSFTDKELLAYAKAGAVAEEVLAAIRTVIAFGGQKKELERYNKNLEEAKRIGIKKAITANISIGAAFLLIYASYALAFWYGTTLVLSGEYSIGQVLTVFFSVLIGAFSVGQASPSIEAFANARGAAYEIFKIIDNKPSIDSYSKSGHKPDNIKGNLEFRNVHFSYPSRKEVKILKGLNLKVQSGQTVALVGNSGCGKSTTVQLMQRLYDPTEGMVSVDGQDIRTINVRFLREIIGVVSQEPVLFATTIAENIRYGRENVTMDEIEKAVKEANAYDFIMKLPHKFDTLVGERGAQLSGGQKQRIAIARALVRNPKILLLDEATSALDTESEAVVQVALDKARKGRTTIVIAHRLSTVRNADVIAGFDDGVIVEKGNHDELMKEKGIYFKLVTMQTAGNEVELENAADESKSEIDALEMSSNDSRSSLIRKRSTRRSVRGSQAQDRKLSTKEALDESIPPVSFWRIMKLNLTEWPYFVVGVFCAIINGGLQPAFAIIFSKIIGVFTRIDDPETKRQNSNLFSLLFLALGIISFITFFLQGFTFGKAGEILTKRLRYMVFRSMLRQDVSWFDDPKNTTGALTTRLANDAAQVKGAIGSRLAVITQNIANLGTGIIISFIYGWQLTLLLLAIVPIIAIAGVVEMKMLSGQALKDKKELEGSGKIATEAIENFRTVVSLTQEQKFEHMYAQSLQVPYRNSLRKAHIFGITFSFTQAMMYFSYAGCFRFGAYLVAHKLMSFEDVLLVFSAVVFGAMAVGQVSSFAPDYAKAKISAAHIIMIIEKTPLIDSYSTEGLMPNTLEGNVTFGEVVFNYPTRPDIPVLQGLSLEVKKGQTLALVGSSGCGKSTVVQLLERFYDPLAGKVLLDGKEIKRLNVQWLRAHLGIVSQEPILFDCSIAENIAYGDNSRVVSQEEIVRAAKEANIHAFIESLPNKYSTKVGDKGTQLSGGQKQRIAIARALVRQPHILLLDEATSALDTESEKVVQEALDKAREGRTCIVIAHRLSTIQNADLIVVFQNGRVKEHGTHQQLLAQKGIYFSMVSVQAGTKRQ

Cc1cccc(-c2ccc(/C=C/[C@@H]3[C@@H]4[C@@H](C)OC(=O)[C@]4(O)CC(F)(F)[C@H]3C)nc2)c1C#N
inhibition in vivo at 0.3 mg/kg [1]: 100%
bioavailability [2]: 5%
Vdu [3]: 60 L/kg
fraction unbound [4]: 0.03
CLint [5]: 4.3 µL/min/1e6 cells
fraction unbound [6]: 0.02
Papp [7]: 41.9 ×10⁻⁶ cm/s
clearance [8]: 26 mL/min/kg
CLint [9]: 41.7 µL/min/1e6 cells
bioavailability [10]: 44%
Vd [11]: 1.5 L/kg
CLint [12]: 11.4 µL/min/1e6 cells
inhibition in vivo at 1 mg/kg [13]: 100%
Vd [14]: 3.1 L/kg
MRT [15]: 1.4 h
Vdu [16]: 115 L/kg
clearance [17]: 8.6 mL/min/kg
efflux ratio (P-glycoprotein): 3.3
CL free [18]: 344 mL/min/kg
Vdu [19]: 171 L/kg
MRT [20]: 3.2 h
MRT [21]: 3 h
efflux ratio (P-glycoprotein (ABCB1)): 1.5
fraction unbound [22]: 0.02
CLint [23]: 2.3 µL/min/1e6 cells
IC50 [24]: 9 µM
CL free [25]: 1238 mL/min/kg
MRT [26]: 2.3 h
bioavailability [27]: 57%
MRT [28]: 2.2 h
IC50 [29]: 3 nM
clearance [30]: 37 mL/min/kg
CL free [31]: 1370 mL/min/kg
IC50 [32]: 9 µM

C[C@H]1OC(=O)[C@]2(N)CC(F)(F)[C@@H](C)[C@H](/C=C/c3ccc(-c4ccccc4C#N)cn3)[C@H]12
AUC [33]: 1.31 µM·h
AUCt/dose [34]: 1.2 µM·h
CL free [35]: 12 mL/min/kg
AUC [36]: 97 µM·h
bioavailability [37]: 54%
clearance [38]: 12 mL/min/kg
inhibition in vivo at 0.3 mg/kg [1]: 100%
Cmax [39]: 5.6 µM
Cmax/dose [40]: 0.56 µM
Cmax/dose [41]: 0.4 µM
fraction unbound [4]: 0.09
Vd [42]: 2.5 L/kg
AUCt/dose [43]: 3.8 µM·h
bioavailability [44]: 37%
CLint [5]: 1.1 µL/min/1e6 cells
fraction unbound [6]: 0.15
Papp [7]: 38.3 ×10⁻⁶ cm/s
AUC [45]: 191 µM·h
MRT [46]: 24 h
CLint [9]: 2 µL/min/1e6 cells
Cmax/dose [47]: 0.56 µM
AUC [48]: 44 µM·h
CLint [12]: 3.3 µL/min/1e6 cells
MRT [49]: 18 h
inhibition in vivo at 1 mg/kg [13]: 100%
Vd [14]: 3.6 L/kg
Vdu [50]: 17 L/kg
MRT [15]: 1.9 h
Vdu [16]: 41 L/kg
AUC [51]: 12.1 µM·h
Vd [52]: 6.3 L/kg
Cmax/dose [53]: 0.12 µM
Cmax [54]: 12 µM
fraction unbound [22]: 0.15
CLint [23]: 13 µL/min/1e6 cells
AUCt/dose [55]: 0.44 µM·h
Cmax [56]: 28 µM
Vdu [57]: 41 L/kg
bioavailability [58]: 100%
AUC [59]: 44 µM·h
MRT [28]: 1.4 h
IC50 [29]: 7 nM
clearance [30]: 31 mL/min/kg
CL free [31]: 352 mL/min/kg
clearance [60]: 5.9 mL/min/kg
Cmax [61]: 360 nM
AUCt/dose [62]: 3.2 µM·h
